Experimental data from patent US6949648B2, “Condensed pyrazole derivatives, process for producing the same and use thereof” (Takeda Pharmaceutical Company Limited, priority 2000, dated 2005).
Marks after values point to notes of the source that are not given here.

Experiments:
human COX-2 = biological target: T1, human COX-2 (Homo sapiens, UniProt P35354); assay: Determination of COX-2 inhibitory activity (microsome fraction, chemiluminescence); format: biochemical; conditions: microsome fraction 20 μg, arachidonic acid, 37° C. 25 minutes preincubation; read-out: Repression rate IC50 (μM) COX-2
T1 construct: made in house; host or cells: Sf-21 insect cells (recombinant baculovirus BAC-COX2, pFASTBAC1); microsome fraction
T1 sequence (P35354 18-604): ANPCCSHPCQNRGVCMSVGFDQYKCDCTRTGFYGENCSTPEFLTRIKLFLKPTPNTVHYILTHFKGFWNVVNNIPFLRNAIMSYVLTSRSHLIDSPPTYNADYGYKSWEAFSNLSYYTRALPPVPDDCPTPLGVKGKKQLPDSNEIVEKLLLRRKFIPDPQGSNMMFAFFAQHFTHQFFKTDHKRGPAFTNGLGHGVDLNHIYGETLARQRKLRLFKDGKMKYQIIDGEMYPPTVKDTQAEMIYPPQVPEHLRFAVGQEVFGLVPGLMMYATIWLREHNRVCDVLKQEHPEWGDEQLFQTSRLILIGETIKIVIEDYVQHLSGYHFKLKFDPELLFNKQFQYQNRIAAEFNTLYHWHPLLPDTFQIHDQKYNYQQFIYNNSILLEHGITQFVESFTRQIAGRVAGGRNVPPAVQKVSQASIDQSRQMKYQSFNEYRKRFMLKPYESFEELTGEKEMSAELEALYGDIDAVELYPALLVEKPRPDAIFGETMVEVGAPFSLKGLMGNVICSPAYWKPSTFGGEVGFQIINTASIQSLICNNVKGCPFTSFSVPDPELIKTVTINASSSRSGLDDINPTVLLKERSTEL
Method: A 1.8 kb DNA fragment containing human COX-2 cDNA (Proc. Natl. Acad. Sci. U.S.A., vol. 89 (16), p. 7384-7388 (1992)) prepared by the PCR method was inserted into plasmid pFASTBAC1 (CIBCOBRAL) to obtain a plasmid pFBCOX2.
Using the plasmid pFBCOX2 and BAC-TO-BAC Baculovirus Expression System (GIBCOBRAL), a virus stock BAC-COX2 of the recombinant baculovirus was prepared.
Sf-21 cells were inoculated in 125 mL of LSf-900 II SFM medium (GIBCOBRAL) at a concentration of 1×10^6 cells/mL, and the medium was incubated at 27° C. for 24 hours. 0.75 mL of the virus stock BAC-COX2 of the recombinant baculovirus was added thereto, and was incubated further for 72 hours. The cells were separated from the medium by centrifugation (3000 rpm, 10 min), and washed with PBS twice. The cells were suspended in 10 mL of a Lysis buffer (0.1M Tris-HCl (pH 7.4), 5 mM EDTA), and were treated with a homogenizer (POLYTRON), three times at 20000 rpm for 20 seconds so that the cells were crushed. The supernatant thus obtained after centrifugation (2000 rpm, 10 minutes) was further centrifuged (40000 rpm, 45 minutes) to obtain a precipitate, which was resuspended in a Lysis buffer (0.1M Tris-HCl (pH 7.4), 5 mM EDTA), and the suspension was stored at −80° C.
Determination of COX-1 and COX-2 Inhibitory Activities
To a mixture of 20 μL of a reaction buffer previously concentrated 10 times (1M Tris-HCl (pH8.0), 50 mM EDTA, 1.0% Tween 20, 50 mM luminol, 100 μM hematin), 20 μL of the microsome fractions (COX-1: 40 μg, COX-2: 20 μg), and 55 μL of distilled water, a sample compound dissolved in DMF (5 μL) was added, and the mixture was left at 37° C. for 25 minutes. The reaction was started by the addition of 20 μM arachidonic acid (100 μL), and chemiluminescence amount during the 10-second period after the addition of arachidonic acid was determined by the use of Lumistar (BMG Lab technologies, GmbH). The inhibition rate was calculated, regarding that the enzyme activity when DMF ([…]) was added was 100%, and the enzyme activity when 4 mM flurbiprofen (5 μL) was added was 0%.

[1] = test system: acetic acid induced rising and stretching; assay: Analgesic activity, acetic acid rising method; format: in vivo, ICR-mice; conditions: po, 20 min; 10 mg/kg orally, 30 minutes before 0.6% acetic acid i.p.; number of rising and stretching in 20 minutes; read-out: Repression rate (%) Dosage 10 mg/kg
Method: Analgesic Activity Acetic Acid Rising Method Male ICR-mice (5 weeks old, CLEA Japan) were used (1 group, n=10), and a sample was orally administered (0.2 mL/10 g, b.w.). After 30 minutes, 0.6% acetic acid solution was injected to mice intraperitoneally (0.1 mL/10 g, b.w.), and the mice were immediately transferred into an observation cage made of a transparent acrylic resin. The number of rising and stretching during the following period of 20 minutes was counted. The repression rate (%) was calculated by comparing the average numbers between the sample groups and the control groups.

yeast-induced pyrexia = assay: Antipyretic activity in yeast-induced pyrexia; format: in vivo, SD rats; conditions: 10 mg/kg orally; maximum difference in body temperature vs control over 6 hours
Method: Antipyretic Activity in Yeast-Induced Pyrexia Antipyretic activity was determined using male SD origin male-rats (7 weeks old, CLEA Japan, 1 group: n=6), according to the method of winter et. al. (J. Pharmacol. Exp. Ther., vol. 138, p. 405, 1963). Before 16 hours from measurement of body temperature, a suspension of 15% yeast in saline was injected subcutaneously (10 mL/kg, b.w.) into the rats to induce fever, and simultaneously supply of food was terminated while water was made available all the time. Each of the rats was raised separately. After 16 hours from the yeast shot, a thermistor terminal was inserted at an about 4 cm depth into rectum every hour, and the body temperatures after 30 seconds were recorded. After 18 hours, rats developing fevers consistently were selected, and a sample was orally administered to the rats (5 mL/kg, b.w.), while to the control, only the solvent was administered. After the administration, body temperatures were measured every hour for a period of 6 hours, and the maximum difference in body temperature between the rats in the sample group and in the control group were determined as Δ (° C.).

| SMILES | IC50 (human COX-2) [µM] | melting point [°C] | inhibition in vivo at 10 mg/kg [1] [%] | Δ (° C.) Dosage 10 mg/kg (yeast-induced pyrexia) |
| --- | --- | --- | --- | --- |
| CCCNc1c2ccccc2nc2c1c(C)nn2-c1ccccn1 [Example 2-6, N-[3-Methyl-1-(2-pyridinyl)-1H-pyrazolo[3,4-b]quinolin-4-yl]-N-propylamine] | 65.1 | 121 to 122 | 57 | 0.8** ° C. |
| CCCOc1c2ccccc2nc2c1c(C)nn2-c1ccccn1 [Example 2-17, 3-Methyl-4-propoxy-1-(2-pyridinyl)-1H-pyrazolo[3,4-b]quinoline] | 49.2 |  | 49 | 1.5** ° C. |
| Cc1nn(-c2ccccn2)c2[nH]c3cccc(F)c3c(=O)c12.Cl [Example 2-79, 5-Fluoro-3-methyl-1-(2-pyridinyl)-1,9-dihydro-4H-pyrazolo[3,4-b]quinolin-4-one hydrochloride] | 3.7 | > 380 | 38 | 1.4** ° C. |

More lines, in order of falling IC50 (human COX-2), values ahead:

| IC50 (human COX-2) [µM] | melting point [°C] | SMILES | inhibition in vivo at 10 mg/kg [1] [%] | Δ (° C.) Dosage 10 mg/kg (yeast-induced pyrexia) |
| --- | --- | --- | --- | --- |
| 86 |  | Cc1nn(-c2ccccn2)c2nc3ccccc3c(OC3CCCC3)c12 [Example 2-21, 4-Cyclopentyloxy-3-methyl-1-(2-pyridinyl)-1H-pyrazolo[3,4-b]quinoline] | 56 | 1.8** ° C. |
| 1.37 | 240 to 242 | O=c1c2ccccc2[nH]c2c1cnn2-c1ccccn1 [Example 2-159, 1-(2-Pyridinyl)-1,9-dihydro-4H-pyrazolo[3,4-b]quinolin-4-one] | 69 | 1.8** ° C. |
